The results in this text go back to patent US20240294498A1, “FACTOR XIIA INHIBITORS” (Lunac Therapeutics Ltd, priority 2021, published 2024).

Format in all cases: biochemical
One experiment deals with T1, FXIIa (Homo sapiens, UniProt P00748).
T1 construct: FXIIa alpha
T1 sequence (P00748 373-615 limits assumed): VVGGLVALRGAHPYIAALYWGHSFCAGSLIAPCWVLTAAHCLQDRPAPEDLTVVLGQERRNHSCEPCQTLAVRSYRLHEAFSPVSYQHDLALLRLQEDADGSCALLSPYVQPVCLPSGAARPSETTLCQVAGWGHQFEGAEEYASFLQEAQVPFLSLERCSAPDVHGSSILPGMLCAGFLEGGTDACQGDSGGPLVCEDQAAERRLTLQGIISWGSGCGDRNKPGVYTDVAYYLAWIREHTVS
T1 sequence (P00748 20-372 partner limits assumed): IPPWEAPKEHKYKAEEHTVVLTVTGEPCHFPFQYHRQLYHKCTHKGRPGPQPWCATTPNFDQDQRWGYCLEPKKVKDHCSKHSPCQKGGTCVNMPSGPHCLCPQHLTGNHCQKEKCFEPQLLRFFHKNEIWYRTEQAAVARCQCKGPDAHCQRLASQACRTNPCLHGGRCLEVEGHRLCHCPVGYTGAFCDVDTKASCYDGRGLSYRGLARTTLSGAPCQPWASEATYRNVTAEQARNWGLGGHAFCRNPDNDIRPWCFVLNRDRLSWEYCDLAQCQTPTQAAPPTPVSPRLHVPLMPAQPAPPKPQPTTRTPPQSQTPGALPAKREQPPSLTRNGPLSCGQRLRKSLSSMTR
Briefly: Determination of Factor XIIa inhibition (chromogenic substrate S-2302). To be noted: human FXIIa alpha, Ki category. Put shortly:
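Compound preincubated with 10 nM FXIIa for 10 min at 37° C in 50 mM Tris, 137 mM NaCl, pH 7.4, 5% DMSO, top concentration 500 μM; S-2302 added at Km. pNA release followed at 405 nm for 3 h; IC50 from initial rates, converted to Ki via Ki = IC50/(1+[S]/Km).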

In a further experiment the target is FXa (Homo sapiens, UniProt P00742). As to the kind of experiment: Determination of selectivity: FXa inhibition (chromogenic substrate S2765). To be noted: fold selectivity for FXIIa over FXa (human); category. A digest of the protocol: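 FXa (5 nM) preincubated with increasing compound (top 500 μM) for 10 mins at 37° C in 50 mM Tris, 137 mM NaCl pH 7.4, 5% DMSO, then S2765 added at its KM. Absorbance at 405 nm followed kinetically for 3 hours; IC50 from initial rates, converted to Ki by Cheng-Prusoff.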
Chain of FXa (P00742 235-488 limits assumed): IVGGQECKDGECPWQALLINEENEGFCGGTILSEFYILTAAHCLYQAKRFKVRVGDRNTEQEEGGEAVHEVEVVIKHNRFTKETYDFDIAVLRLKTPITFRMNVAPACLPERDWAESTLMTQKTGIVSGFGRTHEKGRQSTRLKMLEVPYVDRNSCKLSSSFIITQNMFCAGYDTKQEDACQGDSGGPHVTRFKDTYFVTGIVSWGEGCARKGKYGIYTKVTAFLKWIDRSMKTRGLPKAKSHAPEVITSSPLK
Chain of FXa (P00742 41-179 partner limits assumed): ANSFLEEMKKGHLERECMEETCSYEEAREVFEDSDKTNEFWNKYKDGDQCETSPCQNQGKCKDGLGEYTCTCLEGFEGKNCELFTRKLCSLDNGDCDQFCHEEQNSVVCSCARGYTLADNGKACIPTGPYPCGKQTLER

A further experiment concerns the target T2, thrombin (Homo sapiens, UniProt P00734).
T2 construct: FXa (5 nM) and thrombin (5 nM)
Briefly: Determination of selectivity: thrombin inhibition (chromogenic substrate GPR). To be noted: fold selectivity for FXIIa over thrombin (human); category. Put shortly:
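Thrombin (5 nM) preincubated with increasing compound concentrations (top 500 μM, 5% DMSO) 10 min at 37 °C in 50 mM Tris, 137 mM NaCl pH 7.4, then GPR chromogenic substrate at its KM. pNA release read kinetically at 405 nm for 3 h at 37 °C. IC50 from initial rates, converted to Ki via Cheng–Prusoff.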

Molecules are shown by their SMILES.

For orientation: Ki means a dissociation constant, usually derived from enzyme kinetics or from competition with a known ligand. Consider `Cc1ccc(C[C@@H]2C[C@@H](C(=O)NCc3ccc4c(c3)c(F)nn4C)N(C(=O)[C@@H]3NCCC[C@@H]3C(=O)N3CCCC3)C2)cc1` [Example M05806, (2S,4R)-N-((3-fluoro-1-methyl-1H-indazol-5-yl)methyl)-4-(4-methylbenzyl)-1-((2R,3S)-3-(pyrrolidine-1-carbonyl)piperidine-2-carbonyl)pyrrolidine-2-carboxamide], for which the Ki on FXIIa is under 0.2 µM. Besides, the “FXa (human)/FXIIa alpha (human)” value at FXa is on record as “∘∘∘”. Moreover, on thrombin, the “Thrombin (human)/FXIIa alpha (human)” value is “+++ (fold selectivity values greater than 100)”.
For `Cc1ccc(C=C2C[C@@H](C(=O)NCc3ccc4c(cnn4C)c3)N(C(=O)[C@@H]3NCCC[C@@H]3C(=O)N3CCCC3)C2)cc1` (single isomer, unassigned) [Example M05844] the same measures were 0.8 to 5 µM, “∘∘” and “++ (a fold selectivity value of 10 to 100)”.
The compound `COc1ccc(C[C@@H]2C[C@@H](C(=O)NCc3cc4cnccc4[nH]3)N(C(=O)[C@@H]3NCCC[C@@H]3C(=O)N3CCCC3(C)C)C2)cc1` [Example M00467] gave a Ki at FXIIa of under 0.2 µM. In addition, the “FXa (human)/FXIIa alpha (human)” value on FXa is reported as “∘∘”. Besides, the “Thrombin (human)/FXIIa alpha (human)” value on thrombin is “+ (fold selectivity values less than 10 (e.g. a fold selectivity value of less than 10 and greater than 1))”.
Turning to `CO[C@H]1CCN(C(=O)[C@H]2CCCN[C@H]2C(=O)N2C[C@H](Cc3ccc(C)cc3)C[C@H]2C(=O)NCc2ccc3c(cnn3C)c2)C1` [Example M05837, (2S,4R)-1-((2R,3S)-3-((S)-3-methoxypyrrolidine-1-carbonyl)piperidine-2-carbonyl)-N-((1-methyl-1H-indazol-5-yl)methyl)-4-(4-methylbenzyl)pyrrolidine-2-carboxamide], the Ki at FXIIa was under 0.2 µM. In addition, the “FXa (human)/FXIIa alpha (human)” value on FXa is recorded as “∘∘∘”. Also, the “Thrombin (human)/FXIIa alpha (human)” value on thrombin is “+++ (fold selectivity values greater than 100)”.
For `Cc1ccc(C[C@@H]2C[C@@H](C(=O)NCc3ccc4c(c3)nnn4C)N(C(=O)[C@@H]3NCCC[C@@H]3C(=O)N3CCC[C@@H]3C(F)(F)F)C2)s1` [Example M06079, (2S,4S)-N-+(1-methylbenzotriazol-5-yl)methyl+-4-+(5-methyl-2-thienyl)methyl+-1-+(2R,3S)-3-+(2R)-2-(trifluoromethyl)pyrrolidine-1-carbonyl+piperidine-2-carbonyl+pyrrolidine-2-carboxamide] the same measures were 0.2 to 0.8 µM, “∘∘∘” and “+++ (fold selectivity values greater than 100)”.
On to `Cc1ccc(C[C@@H]2C[C@@H](C(=O)NCc3ccc4c(cnn4C)c3)N(C(=O)[C@@H]3NCCC[C@@H]3C(=O)N3CC[C@@H](F)C3)C2)cc1` [Example M05785, (2S,4R)-1-((2R,3S)-3-((R)-3-fluoropyrrolidine-1-carbonyl)piperidine-2-carbonyl)-N-((1-methyl-1H-indazol-5-yl)methyl)-4-(4-methylbenzyl)pyrrolidine-2-carboxamide], for which the Ki at FXIIa is under 0.2 µM. At FXa, the “FXa (human)/FXIIa alpha (human)” value was “∘∘∘”. Besides, at thrombin, the “Thrombin (human)/FXIIa alpha (human)” value was “+++ (fold selectivity values greater than 100)”.
For `Cc1ccc2c(c1)CCN2C1C[C@@H](C(=O)NCc2ccc3c(cnn3C)c2)N(C(=O)[C@@H]2NCCC[C@@H]2C(=O)N2CCCC2)C1` (single isomer, unassigned) [Example M05838] the same measures were 0.2 to 0.8 µM, “∘∘∘” and “+++ (fold selectivity values greater than 100)”.
On FXIIa, `Cn1ncc2cc(CNC(=O)[C@@H]3C[C@@H](Cc4ccc(OC(F)F)cc4)CN3C(=O)[C@@H]3NCCC[C@@H]3C(=O)N3CCCC3)ccc21` [Example M06021] showed a Ki of 0.2 to 0.8 µM. Also, the “FXa (human)/FXIIa alpha (human)” value on FXa is on record as “∘∘∘”. In addition, the “Thrombin (human)/FXIIa alpha (human)” value on thrombin is “+++ (fold selectivity values greater than 100)”.
For `Cc1nnc2cc(CNC(=O)[C@@H]3C[C@@H](Cc4ccc(C(F)(F)F)cc4)CN3C(=O)[C@@H]3NCCC[C@@H]3C(=O)N3CCCC3)ccn12` [Example M05882, (2S,4R)-N-((3-methyl-[1,2,4]triazolo[4,3-a]pyridin-7-yl)methyl)-1-((2R,3S)-3-(pyrrolidine-1-carbonyl)piperidine-2-carbonyl)-4-(4-(trifluoromethyl)benzyl)pyrrolidine-2-carboxamide], the Ki on FXIIa lay within 0.8 to 5 µM. Also, on FXa, the “FXa (human)/FXIIa alpha (human)” value is “∘∘∘”. For the same compound, the “Thrombin (human)/FXIIa alpha (human)” value on thrombin is on record as “+++ (fold selectivity values greater than 100)”.
For `Cc1ccc(C[C@@H]2C[C@@H](C(=O)NCc3ccc4c(cnn4C(F)F)c3)N(C(=O)[C@@H]3NCCC[C@@H]3C(=O)N3CCCC3)C2)cc1` [Example M05778, (2S,4R)-N-((1-(difluoromethyl)-1H-indazol-5-yl)methyl)-4-(4-methylbenzyl)-1-((2R,3S)-3-(pyrrolidine-1-carbonyl)piperidine-2-carbonyl)pyrrolidine-2-carboxamide] the same measures were 0.2 to 0.8 µM, “∘∘∘” and “+++ (fold selectivity values greater than 100)”.
On the same counts, the results for `Cc1ccc(C[C@@H]2C[C@@H](C(=O)NCc3ccc4c(cnn4C)c3)N(C(=O)[C@@H]3NCCC[C@@H]3C(=O)N3CCCC34CC4)C2)cc1` [Example M05773] are 0.2 to 0.8 µM, “∘∘∘” and “++ (a fold selectivity value of 10 to 100)”.
For `Cc1ccc(C[C@@H]2C[C@@H](C(=O)NCc3ccc4c(cnn4C)c3)N(C(=O)[C@@H]3NCCC[C@@H]3C(=O)N(C)C3CCN(C4CC4)CC3)C2)cc1` [Example M06112, (2R,3S)-N-(1-cyclopropylpiperidin-4-yl)-N-methyl-2-((2S,4R)-2-(((1-methyl-1H-indazol-5-yl)methyl)carbamoyl)-4-(4-methylbenzyl)pyrrolidine-1-carbonyl)piperidine-3-carboxamide] the same measures were under 0.2 µM, “∘∘∘” and “+++ (fold selectivity values greater than 100)”.
`Cc1ccc(C[C@@H]2C[C@@H](C(=O)NCc3ccc4c(cnn4C)c3)N(C(=O)[C@@H]3NCCC[C@@H]3C(=O)N(C)CCN3CCCC3)C2)cc1` [Example M06039, (2R,3S)-N-methyl-2-((2S,4R)-2-(((1-methyl-1H-indazol-5-yl)methyl)carbamoyl)-4-(4-methylbenzyl)pyrrolidine-1-carbonyl)-N-(2-(pyrrolidin-1-yl)ethyl)piperidine-3-carboxamide] displayed a Ki at FXIIa of under 0.2 µM. The “FXa (human)/FXIIa alpha (human)” value at FXa was “∘∘∘”. In addition, at thrombin, the “Thrombin (human)/FXIIa alpha (human)” value is on record as “+++ (fold selectivity values greater than 100)”.
On the same counts, the results for `Cn1nnc2cc(CNC(=O)[C@@H]3C[C@@H](CC4CCC5(CC4)CC5)CN3C(=O)[C@@H]3NCCC[C@@H]3C(=O)N3CCCC3)ccc21` [Compound M06003] are 0.2 to 0.8 µM, “∘∘∘” and “+++ (fold selectivity values greater than 100)”.
With `Cc1ccc(C[C@@H]2C[C@@H](C(=O)NCc3ccc4c(cnn4C)c3)N(C(=O)[C@@H]3NCCC[C@@H]3C(=O)N(CCN(C)C)C3CC3)C2)cc1` [Example M06048, (2R,3S)-N-cyclopropyl-N-(2-(dimethylamino)ethyl)-2-((2S,4R)-2-(((1-methyl-1H-indazol-5-yl)methyl)carbamoyl)-4-(4-methylbenzyl)pyrrolidine-1-carbonyl)piperidine-3-carboxamide], at FXIIa, the Ki was under 0.2 µM. Also, the “FXa (human)/FXIIa alpha (human)” value on FXa is given as “∘∘∘”. The “Thrombin (human)/FXIIa alpha (human)” value at thrombin is recorded as “+++ (fold selectivity values greater than 100)”.
